{
  "source": "patent US20130195815A1",
  "about": "“METHOD FOR LABELING INSULIN-SECRETING PANCREATIC BETA CELLS AND OBTAINING PURIFIED INSULIN-SECRETING PANCREATIC B-CELLS AND AN INSULIN REPORTED” (NORTH CAROLINA CENTRAL UNIVERSITY, priority 2011, published 2013)",
  "test_system": "INS-1 cells",
  "test": "GSIS assay: release of PPI-mCherry reporter into conditioned media (relative fluorescence)",
  "format": "cell-based, rat",
  "conditions": "INS-1 cells transduced with PPI-mCherry, 2 h",
  "procedure": "(HG—high glucose (25 mM): LG—low glucose (5.6 mM): Ex—10 nM: NF—nifedipine 10 μM, calcium channel blocker/inhibitor) (Y-axis=normalized fluorescent units—FLU).\nThe reporter system was tested in insulin secretion assays.\nGSIS: INS-1 cells were transduced with PPI-mCherry and allowed to recover. […] Conditioned media was removed and spotted onto a membrane and relative fluorescence determined using an Odyssey CLx imager (Licor Corp).",
  "data": [
    {"substance": "PPI-mCherry: Genetically encoded preproinsulin-mCherry fluorescent protein reporter (SEQ ID NO: 1), delivered by pLenti vector", "values": [
      {"measurement": "glucose stimulated release of the PPI-mCherry reporter (high vs low glucose)", "value": 1.7, "unit": "fold"}
    ]}
  ]
}
